Molecular target: Histone deacetylase
Assay: Inhibition of HDAC in human Hela cells nuclear extracts by fluorimetric assay
Format: cell-based

| SMILES | Ki [µM] | IC50 [mM] |
| --- | --- | --- |
| CCCC(=O)O [BUTYRIC ACID] | 136 | – |
| O=C(/C=C/c1ccc(O)c(O)c1)O[C@@H]1C[C@](O)(C(=O)O)C[C@@H](O)[C@H]1O [CHLOROGENIC ACID] | 0.135 | 0.375 |
| CCCC(=O)[O-].[Na+] [SODIUM BUTYRATE] | 365 | 0.8 |
| O=C([O-])CCCc1ccccc1.[Na+] [SODIUM PHENYLBUTYRATE] | 6.34 | – |
| O=C(O)/C=C/c1ccc(O)c(O)c1 [CAFFEIC ACID] | 10.84 | 2.54 |

Now from value to molecule:

| Ki [µM] | IC50 [mM] | SMILES |
| --- | --- | --- |
| 0.00821 | – | O=C(O)/C=C/c1ccccc1 [CINNAMIC ACID] |
| 8.19 | – | NCCCC(=O)O [GAMMA-AMINOBUTYRIC ACID] |

From ChEMBL document CHEMBL1155249, “Molecular modifications on carboxylic acid derivatives as potent histone deacetylase inhibitors: Activity and docking studies” (Bioorg Med Chem, 2009)
